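In this assay, cells in 96-well plates receive the compound at five concentrations for 48 hours. Endpoints are linearly interpolated between the surrounding concentrations. GI50 is the concentration that inhibits growth by half.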 Calls of active or inactive are those of the source. Rule as the data show it: active = GI50 up to about 1.1 µM and inactive = higher.
Assays:
Test in all cases: NCI tumour cell line growth inhibition, 48 h
ACHN = tested on: ACHN
CAKI-1 = tested on: CAKI-1
DU-145 = tested on: DU-145
HCT-15 = tested on: HCT-15
HOP-62 = tested on: HOP-62
K562 = tested on: K562
M14 = tested on: M14
MDA-N = tested on: MDA-N
NCI-H23 = tested on: NCI-H23
NCI-H522 = tested on: NCI-H522
NCI/ADR-RES = tested on: NCI/ADR-RES
PC-3 = tested on: PC-3
RPMI-8226 = tested on: RPMI-8226
SF-539 = tested on: SF-539
SK-OV-3 = tested on: SK-OV-3
SN12C = tested on: SN12C
SNB-75 = tested on: SNB-75
TK-10 = tested on: TK-10
UACC-62 = tested on: UACC-62
UO-31 = tested on: UO-31

## Cn1c(=O)c2[nH]c(CCC(=O)O)nc2n(C)c1=O
ACHN
  GI50: > 100 µM (inactive)
CAKI-1
  GI50: > 100 µM (inactive)
DU-145
  GI50: > 100 µM (inactive)
HCT-15
  GI50: > 100 µM
HOP-62
  GI50: > 100 µM (inactive)
K562
  GI50: > 100 µM (inactive)
M14
  GI50: > 100 µM (inactive)
MDA-N
  GI50: > 100 µM (inactive)
NCI-H23
  GI50: > 100 µM (inactive)
NCI-H522
  GI50: > 100 µM (inactive)
NCI/ADR-RES
  GI50: > 100 µM (inactive)
PC-3
  GI50: > 100 µM (inactive)
RPMI-8226
  GI50: > 100 µM (inactive)
SF-539
  GI50: > 100 µM (inactive)
SK-OV-3
  GI50: > 100 µM (inactive)
SN12C
  GI50: > 100 µM (inactive)
SNB-75
  GI50: > 100 µM (inactive)
TK-10
  GI50: > 100 µM (inactive)
UACC-62
  GI50: > 100 µM (inactive)
UO-31
  GI50: > 100 µM (inactive)

## COC(=O)c1ccc(C)cc1C1CN=NC12Cc1cc(C)ccc1C2=O (stereo not given)
ACHN
  GI50: 28.1 µM (inactive)
CAKI-1
  GI50: 11.8 µM (inactive)
DU-145
  GI50: 34 µM (inactive)
HCT-15
  GI50: 5.24 µM
HOP-62
  GI50: 20.1 µM (inactive)
K562
  GI50: 4.84 µM (inactive)
M14
  GI50: 9.31 µM (inactive)
MDA-N
  GI50: 2.37 µM (inactive)
NCI-H23
  GI50: 18.1 µM (inactive)
NCI-H522
  GI50: 5.06 µM (inactive)
NCI/ADR-RES
  GI50: 6.64 µM (inactive)
PC-3
  GI50: 11.5 µM (inactive)
RPMI-8226
  GI50: 16.4 µM (inactive)
SF-539
  GI50: 13.9 µM (inactive)
SK-OV-3
  GI50: 23.2 µM (inactive)
SN12C
  GI50: 23.9 µM (inactive)
SNB-75
  GI50: 8.61 µM (inactive)
TK-10
  GI50: 22.8 µM (inactive)
UACC-62
  GI50: 8 µM (inactive)
UO-31
  GI50: 24 µM (inactive)

## COC(OC)C1OC(CO)C(n2ccc(N)nc2=O)C1O (stereo not given)
ACHN
  GI50: > 100 µM (inactive)
CAKI-1
  GI50: > 100 µM (inactive)
DU-145
  GI50: > 100 µM (inactive)
HCT-15
  GI50: > 100 µM
HOP-62
  GI50: > 100 µM (inactive)
K562
  GI50: > 100 µM (inactive)
M14
  GI50: > 100 µM (inactive)
MDA-N
  GI50: > 100 µM (inactive)
NCI-H23
  GI50: > 100 µM (inactive)
NCI-H522
  GI50: > 100 µM (inactive)
NCI/ADR-RES
  GI50: > 100 µM (inactive)
PC-3
  GI50: > 100 µM (inactive)
RPMI-8226
  GI50: > 100 µM (inactive)
SF-539
  GI50: > 100 µM (inactive)
SK-OV-3
  GI50: > 100 µM (inactive)
SN12C
  GI50: > 100 µM (inactive)
SNB-75
  GI50: > 100 µM (inactive)
TK-10
  GI50: > 100 µM (inactive)
UACC-62
  GI50: > 100 µM (inactive)
UO-31
  GI50: > 100 µM (inactive)

## C[C@H]1CCC/C=C/[C@@H]2C[C@H](OC(=O)CN(C)C)C[C@H]2[C@H](O)/C=C/C(=O)O1
ACHN
  GI50: 0.2 µM (active)
CAKI-1
  GI50: 0.161 µM (active)
DU-145
  GI50: 0.401 µM (active)
HCT-15
  GI50: 0.188 µM
HOP-62
  GI50: 0.21 µM (active)
K562
  GI50: 0.241 µM (active)
M14
  GI50: 0.0778 µM (active)
MDA-N
  GI50: 0.135 µM (active)
NCI-H23
  GI50: 0.129 µM (active)
NCI-H522
  GI50: 0.425 µM (active)
NCI/ADR-RES
  GI50: 0.0139 µM (active)
PC-3
  GI50: 0.141 µM (active)
RPMI-8226
  GI50: 0.303 µM (active)
SF-539
  GI50: 0.148 µM (active)
SK-OV-3
  GI50: 0.0586 µM (active)
SN12C
  GI50: 0.158 µM (active)
SNB-75
  GI50: 0.155 µM (active)
TK-10
  GI50: 0.1 µM (active)
UACC-62
  GI50: 0.108 µM (active)
UO-31
  GI50: 0.0581 µM (active)

## COc1ccc(C(SC2C(O)C(CO)OC2n2ccc(N)nc2=O)(c2ccccc2)c2ccc(OC)cc2)cc1 (stereo not given)
ACHN
  GI50: 31.3 µM (inactive)
CAKI-1
  GI50: 31.3 µM (inactive)
DU-145
  GI50: 18.5 µM (inactive)
HCT-15
  GI50: 17.8 µM
HOP-62
  GI50: 17.8 µM (inactive)
K562
  GI50: 26.4 µM (inactive)
M14
  GI50: 12.7 µM (inactive)
MDA-N
  GI50: 10.1 µM (inactive)
NCI-H23
  GI50: 22.2 µM (inactive)
NCI-H522
  GI50: 13.4 µM (inactive)
NCI/ADR-RES
  GI50: 21 µM (inactive)
PC-3
  GI50: 16.4 µM (inactive)
RPMI-8226
  GI50: 17.5 µM (inactive)
SF-539
  GI50: 18.7 µM (inactive)
SK-OV-3
  GI50: 12.2 µM (inactive)
SN12C
  GI50: 13.3 µM (inactive)
SNB-75
  GI50: 16.5 µM (inactive)
TK-10
  GI50: 26.8 µM (inactive)
UACC-62
  GI50: 16.1 µM (inactive)
UO-31
  GI50: 18.5 µM (inactive)

## CC1(C)CC(=O)C2=C(C1)C(c1ccccc1Cl)C1C(=O)CC(C)(C)CC1(O)O2 (stereo not given)
ACHN
  GI50: > 100 µM (inactive)
CAKI-1
  GI50: 98.2 µM (inactive)
DU-145
  GI50: > 100 µM (inactive)
HCT-15
  GI50: 42.5 µM
HOP-62
  GI50: > 100 µM (inactive)
K562
  GI50: 15.3 µM (inactive)
M14
  GI50: 98.2 µM (inactive)
MDA-N
  GI50: 19.6 µM (inactive)
NCI-H23
  GI50: > 100 µM (inactive)
NCI-H522
  GI50: > 100 µM (inactive)
NCI/ADR-RES
  GI50: > 89.1 µM (inactive)
PC-3
  GI50: > 100 µM (inactive)
RPMI-8226
  GI50: > 84.1 µM (inactive)
SF-539
  GI50: 69 µM (inactive)
SK-OV-3
  GI50: > 100 µM (inactive)
SN12C
  GI50: > 100 µM (inactive)
SNB-75
  GI50: > 78.3 µM (inactive)
TK-10
  GI50: > 100 µM (inactive)
UACC-62
  GI50: > 64.7 µM (inactive)
UO-31
  GI50: > 100 µM (inactive)

## CC(C)C(NC(=O)C(Cc1ccccc1)NC(=O)[C@H]1CCC[C@H]1NC(=O)C(N)Cc1ccc(O)cc1)C(N)=O (stereo not given in full)
ACHN
  GI50: > 100 µM (inactive)
CAKI-1
  GI50: > 100 µM (inactive)
DU-145
  GI50: > 100 µM (inactive)
HCT-15
  GI50: > 100 µM
HOP-62
  GI50: > 100 µM (inactive)
K562
  GI50: > 100 µM (inactive)
M14
  GI50: > 100 µM (inactive)
MDA-N
  GI50: > 100 µM (inactive)
NCI-H23
  GI50: > 100 µM (inactive)
NCI-H522
  GI50: > 100 µM (inactive)
NCI/ADR-RES
  GI50: > 100 µM (inactive)
PC-3
  GI50: > 100 µM (inactive)
RPMI-8226
  GI50: > 100 µM (inactive)
SF-539
  GI50: > 100 µM (inactive)
SK-OV-3
  GI50: > 100 µM (inactive)
SN12C
  GI50: > 100 µM (inactive)
SNB-75
  GI50: > 100 µM (inactive)
TK-10
  GI50: > 100 µM (inactive)
UACC-62
  GI50: > 100 µM (inactive)
UO-31
  GI50: > 100 µM (inactive)

## CO[C@H]1C[C@H](O[C@H]2CC[C@]3(C=O)[C@H]4CC[C@]5(C)[C@@H](C6=CC(=O)OC6)CC[C@]5(O)[C@@H]4CC[C@]3(O)C2)O[C@H](C)[C@H]1O[C@@H]1O[C@H](CO[C@@H]2O[C@H](CO)[C@@H](O)[C@H](O)[C@H]2O)[C@@H](O)[C@H](O)[C@H]1O
ACHN
  GI50: 0.0186 µM (active)
CAKI-1
  GI50: 0.0223 µM (active)
DU-145
  GI50: 0.0156 µM (active)
HCT-15
  GI50: 0.0405 µM
HOP-62
  GI50: 0.0158 µM (active)
K562
  GI50: 0.0857 µM (active)
M14
  GI50: 0.147 µM (active)
MDA-N
  GI50: 0.128 µM (active)
NCI-H23
  GI50: 0.016 µM (active)
NCI-H522
  GI50: 0.0139 µM (active)
NCI/ADR-RES
  GI50: 0.034 µM (active)
PC-3
  GI50: 0.038 µM (active)
RPMI-8226
  GI50: 0.139 µM (active)
SF-539
  GI50: 0.0353 µM (active)
SK-OV-3
  GI50: 0.0543 µM (active)
SN12C
  GI50: 0.0289 µM (active)
SNB-75
  GI50: 0.11 µM (active)
TK-10
  GI50: 0.0279 µM (active)
UACC-62
  GI50: 0.223 µM (active)
UO-31
  GI50: 0.0405 µM (active)

From ChEMBL document CHEMBL1201862, “PubChem BioAssay data set” (2004)
